Reference: ChEMBL document CHEMBL1201862, “PubChem BioAssay data set” (2004)
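Exposure lasted 48 hours, with cells grown in 96-well plates and compounds tested at five concentrations. GI50 is the concentration that inhibits growth by half.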 Activity calls are given as the source filed them. Rule as the data show it: active = GI50 up to about 1.1 µM and inactive = higher.

Legend:
Test in all cases: NCI tumour cell line growth inhibition, 48 h
NCI-H460 = system: NCI-H460
IGROV-1 = system: IGROV-1
U-251 = system: U-251
RXF 393 = system: RXF 393
SK-MEL-5 = system: SK-MEL-5
786-0 = system: 786-0
UACC-62 = system: UACC-62
UO-31 = system: UO-31
SF-295 = system: SF-295
TK-10 = system: TK-10
ACHN = system: ACHN
HCT-116 = system: HCT-116
SK-MEL-2 = system: SK-MEL-2
OVCAR-4 = system: OVCAR-4
SNB-19 = system: SNB-19
EKVX = system: EKVX
NCI-H522 = system: NCI-H522

Measured: GI50

CCOC(=O)C12CN(C34CC5CC(CC(C5)C3)C4)CC(C(=O)OCC)(C1=O)C(c1ccccc1)OC2c1ccccc1 (stereo not given)
inactive: NCI-H460 > 100 µM | IGROV-1 > 100 µM | U-251 > 100 µM | RXF 393 19.4 µM | SK-MEL-5 94.8 µM | 786-0 > 100 µM | UACC-62 > 100 µM | UO-31 > 100 µM | SF-295 > 100 µM | TK-10 > 100 µM | ACHN > 100 µM | HCT-116 > 10 µM | SK-MEL-2 > 100 µM | OVCAR-4 23 µM | SNB-19 > 100 µM | EKVX > 100 µM

Cc1ccc(NC(=O)OCC(COc2ccc(Cl)cc2Cl)OC(=O)Nc2ccc(C)cc2)cc1 (stereo not given)
inactive: NCI-H460 > 100 µM | IGROV-1 > 100 µM | U-251 34.8 µM | RXF 393 79.4 µM | 786-0 64.6 µM | UACC-62 > 100 µM | UO-31 66.2 µM | SF-295 > 100 µM | ACHN > 100 µM | HCT-116 > 100 µM | SK-MEL-2 > 100 µM | OVCAR-4 33.2 µM | SNB-19 47.6 µM | EKVX > 100 µM

COc1ccccc1NC(=O)CC(=O)n1nc(C)c(/N=N/c2ccccc2C(=O)O)c1C
inactive: NCI-H460 > 100 µM | IGROV-1 > 100 µM | U-251 95.7 µM | NCI-H522 43.9 µM | SK-MEL-5 68.1 µM | 786-0 > 100 µM | UACC-62 59.7 µM | UO-31 48.6 µM | SF-295 > 100 µM | TK-10 > 100 µM | HCT-116 > 100 µM | SK-MEL-2 > 100 µM | OVCAR-4 > 100 µM | SNB-19 > 100 µM | EKVX 29.6 µM

C[C@@H](NC1CCCC[C@@H]1O)c1ccccc1 (stereo not given in full)
inactive: NCI-H460 > 100 µM | IGROV-1 > 100 µM | U-251 > 100 µM | RXF 393 > 100 µM | SK-MEL-5 > 100 µM | 786-0 > 100 µM | UACC-62 > 100 µM | UO-31 > 100 µM | SF-295 > 100 µM | TK-10 > 100 µM | ACHN > 100 µM | HCT-116 > 100 µM | SK-MEL-2 > 100 µM | OVCAR-4 > 100 µM | SNB-19 > 100 µM | EKVX > 100 µM

CC/C=C/c1cc2cc[nH]c2c2c1C(C)C[C@@H]2C (stereo not given in full)
inactive: NCI-H460 25.1 µM | IGROV-1 40.4 µM | U-251 23.4 µM | NCI-H522 18.1 µM | RXF 393 17.7 µM | SK-MEL-5 21.6 µM | 786-0 18.9 µM | UACC-62 17.8 µM | UO-31 24.9 µM | SF-295 24.4 µM | TK-10 53.6 µM | ACHN 73.5 µM | HCT-116 15.7 µM | EKVX 43.2 µM
